Assay results taken from article PMC7563222, “Recognition of Dimeric Lewis X by Anti-Dimeric Le^x Antibody SH2” (Vaccines, 2020).

How the values were obtained:
mAb SH2 [1] = assay: Indirect titration ELISA of SH2 ascites against coated glycoconjugates; format: binding, mouse; details: antigens coated at 10 μg/mL; 2 and 5 also at 20 µg/mL (not shown)
Experimental: MaxiSorp NUNC 96-well enzyme-linked immunosorbent assay (ELISA) microtiter plate (Thermo Fisher Scientific) was coated with a dilution of glycoconjugates 1–5 and BSA (100 μL per well, […]) in a 10 mM phosphate-buffered saline (PBS) solution at pH 7.1. The plate was covered with sealing tape and incubated at 4 °C overnight. The antigen solution was discarded, and the plate was washed (using ELx405 auto plate washer, 5 × 15 s) with a 10 mM PBS buffer at pH 7.3 containing 0.05% Tween 20. The plate was blocked with 0.05% skim milk in 10 mM PBS (300 μL per well) and incubated for 1 h at 37 °C. The plate was then washed with 10 mM PBS-0.05% Tween 20. A 1:100 dilution of SH2 ascites was prepared and 146 μL of the dilution was distributed in the wells corresponding to the primary dilution. All other wells received 100 μL of the 10 mM PBS-0.05% Tween 20 pH 7.3 buffer. In-plate serial dilutions were performed in which 46 μL of the primary dilution was pipetted downward along the rows. The well contents were mixed by rinsing the pipette tips (7×). Lastly, 46 μL of the mAb solution was removed and discarded from the wells, which received the final solution of mAb (final volume in all wells, 100 μL). The last row of the 96-well plate was used as the blank control. MAb SH2 ascites were not pipetted into these wells, rather 100 μL of 10 mM PBS-0.05% Tween 20 was added. The plate was incubated for 2 h at 23 °C (in the dark). The plate was subsequently washed using the plate washer with PBS-0.05% Tween 20. A dilution of commercially available horseradish peroxidase labeled goat anti-mouse antibody (Mandel Scientific) (1:5000 in 10 mM PBS-0.05% Tween 20, 100 μL per well) was added to each well. After 1 h of incubation at 23 °C (in the dark), the plate was washed with PBS-0.05% Tween 20. A solution of the chromogenic substrate 3,3′,5,5′-tetramethylbenzidine (TMB) (Mandel Scientific) (100 μL per well) was added. After a 10 min incubation period at 23 °C (in the dark), 100 μL of 5% Phosphoric Acid stop solution was added to the wells to quench the reaction. The absorbance values were read at 450 nm employing a PowerWave XS plate reader. All samples were prepared in triplicate. The absorbance values were plotted against an increasing serum dilution. The values were fitted to a 4-parameter logistics sigmoidal equation: y = y0 + a/[1 + (x/x0)^b] using Sigma Plot®® 10.0.

mAb SH2 [2] = assay: Competitive ELISA: inhibition of mAb SH2 binding to immobilized (DimLe^x)16-BSA conjugate 1; parameters: species or system mouse; details: (DimLe^x)16-BSA 1 immobilized; SH2 serum dilution 1:500 (Figure 5)
Experimental: A MaxiSorp NUNC 96-well ELISA microtiter plate was coated with a dilution of the (DimLe^x)16-BSA conjugate 1 (100 μL per well, 5 μg/mL) in a 10 mM PBS solution at pH 7.1. The plate was covered with sealing tape and incubated at 4 °C overnight. The antigen solution was discarded, and the plate was washed (using ELx405 auto plate washer, 5 × 15 s) with a 10 mM PBS buffer at pH 7.3 containing 0.05% Tween 20. In 1.5 mL Eppendorf tubes, 175 μL dilutions of competitors (concentration ranging from 0.632 mg/mL to 2 mg/mL in 10 mM PBS-0.05% Tween 20) were incubated for 1 h at 23 °C (in the dark) with 175 μL of a solution of SH2 ascites (1:500 dilution in 10 mM PBS-0.05% Tween 20). At the same time, the plate was blocked with 0.05% skim milk in PBS (300 μL per well). After 1 h of incubation at 37 °C, the plate was washed with 10 mM PBS-0.05% Tween 20. Each well then received 100 μL of the competitor-mAb mixture. Three wells were used as the blank control in which the competitor-mAb mixture was not added, rather received 100 μL of 10 mM PBS-0.05% Tween 20. The plate was incubated for 3 h at 23 °C (in the dark). The plate was subsequently washed using the plate washer with PBS-0.05% Tween 20. A dilution of commercially available horseradish peroxidase labeled goat anti-mouse antibody (1:5000 in 10 mM PBS-0.05% Tween 20, 100 μL per well) was added to each well. After 1 h of incubation at 23 °C (in the dark), the plate was washed with 10 mM PBS-0.05% Tween 20. A solution of the chromogenic substrate TMB (100 μL per well) was added. After a 10 min incubation period at 23 °C (in the dark), 100 μL of 5% Phosphoric Acid stop solution was added to the wells to quench the reaction. The absorbance values were read at 450 nm employing a PowerWave XS plate reader. All samples were prepared in triplicate. The absorbance values were plotted as the percentage inhibition against an increasing concentration of competitor, calculated using wells containing no competitor as the reference point. The values were fitted to a 4-parameter logistics sigmoidal equation: y = y0 + a/[1 + (x/x0)^b] using Sigma Plot 10.0. The concentration of each analogue required for 50% inhibition (IC50) of Le^x-SH2 binding and the corresponding changes in free energy Δ(ΔG) of binding (kcal·mol^−1) using DimLe^xOPr 6 (Table 1) or Le^xOMe 7 (Table 2) as the reference were calculated.

## (Le^x)10-BSA [compound 3]
mAb SH2 [1]
  Binding of SH2 to coated antigen (titration, in words): no binding
mAb SH2 [2]
  Inhibition of SH2 binding to (DimLe^x)16-BSA by glycoconjugates as soluble inhibitors (in words): did not

## (Le^x)35-BSA [compound 4]
mAb SH2 [1]
  Binding of SH2 to coated antigen (titration, in words): weakly binds
mAb SH2 [2]
  Inhibition of SH2 binding to (DimLe^x)16-BSA by glycoconjugates as soluble inhibitors (in words): did not
